Measured values taken from patent US9834535B2, “Sulfamate derivative compounds for use in treating or alleviating pain” (Bio-Pharm Solutions Co., Ltd., priority 2013, dated 2017).

Columns and labels:
SNL model = assay: Antiallodynic activity on Chung model (SNL, spinal nerve ligation; von Frey); type: in vivo, Sprague-Dawley rats; settings: rat, oral, 0.5 h; for ED50: von Frey
Protocol: Male. Sprague-Dawley rats (200-220 g, Orient Bio, Korea) were habituated for 1 week before the experiment and allowed free access to food and water throughout the experimentation. Room temperature and humidity were maintained at 24±2° C. and 50±10%, respectively. Neuropathic surgery (SNL, Spinal nerve ligation) model was clone as described in Kim and Chung (1992). Briefly, animal under gaseous anesthesia with isoflurane a 4:4 flow ratio of NO2. The left lumber spinal nerve L5 and L6 were isolated and tightly ligated with 4-0 silk thread. The wound was treated with a gentamicin antibiotics solution (4 mg/kg, 4 ul/g, bw), and the wound muscle was closed with cat cut chrom 4/0 thread and skin was closed dafilon 4/0 tread. Sham controls were prepared in the same manner as the spinal nerves were exposed, but no ligated L5 and L6 nerves. But, vehicle controls were identical to SNL model, except for administration of vehicles.
(§1) Tactile sensitivity (Mechanical allodynia) was evaluated using von Frey monofilaments before and after treatment and animals were used withdrawal threshold value was less than 4 g. One week after surgery, SNL-operated animals (n=4˜6), sham-operated animals (n=4˜10) and vehicle-operated animals (n=4˜13) were tested for tactile sensitivity with von Frey monofilaments 3 trials in each animal. All Animals were placed in a stainless steel mashed chamber and habituated for 30 min in the test box. The tactile sensitivity for ipsilateral hind paw was measured using the up-and-down method (Dixon, 1980) with seven von Frey monofilaments (0.4, 1, 2, 4, 6, 8, and 15 g) to 3 trials. Tactile sensitivity test was followed by Dixon's method (Dixon, 1980). The 50% paw withdrawal threshold for each paw was calculated using the following formula: [Xth] log=[vFr] log+ky where [vFr] is the force of the last von Frey used, k=0.2249 which is the average interval (in log units) between the von Frey monofilaments, and y is a value that depends upon the pattern of withdrawal responses (Dixon, 1980).
All animals were fasted 18 h before the administration of the compounds. The antiallodynic effect of the compounds were evaluated at the various dose (n=5˜6), orally administrated in a volume of 5 ul/g, bw in a vehicle of 30% (v/v) PEG 400 or 20% (v/v) Tween 80 or Saline. […]
The relative values compared to the sham group (% control) were calculated and shown in Table 5, which show an antiallodynic effect of the test compounds on SNL model in rats.

[1] = system: hot plate withdrawal latency; assay: Hot-plate test; type: in vivo, ICR mice; settings: mouse, oral
Protocol: To examine the pain relief effect of the sulfamate derivative compounds, a hot-plate test was conducted in general pain animal model referring to Current Protocols in Neuroscience; Behavioral Neuroscience Unit 8.9.
ICR mice (male, 30-35 g: Orient Bio, Korea) were habituated before test in test room for 1 hour. Animals were fasted 2 hr before administration of compounds. […] All compounds were dissolved in a vehicle of 30% (v/v) PEG 400 or 20% (v/v) Tween 80. The control group was treated the vehicle without compounds.
[…] (Hu, X. et al, 2008), and then, measured as the withdrawal latency (cut-off time: 30 sec) time until the point when each mouse was taking off a paw from the plate, shaking, licking a paw or hind leg, or jumping from the plate.

[2] = system: tail-flick withdrawal latency; assay: Tail-flick test; type: in vivo, ICR mice; settings: mouse, oral
Protocol: To examine the pain relief effect of the sulfamate compounds, a tail-flick test was conducted in general pain animal model referring to Current Protocols in Neuroscience; Behavioral Neuroscience Unit 8.9.
ICR mice (male, 25-30 g; Orient Bio, Korea) were habituated before test in test room for 1 hour. Animals were fasted 2 hr before administration of compounds. Each of Compound was orally administered at the close of 150 mg/kg, 10 ul/g, bw (n=7˜10/group). All compounds were dissolved in a vehicle of 30% (v/v) PEG 400 or 20% (v/v) Tween 80. The control group was treated the vehicle without compounds.
After the administration of compounds, the mice tail were put on a tail-flick analgesia meter. To avoid tissue damage, maximal exposure time to pain stimuli was restricted to 15 s. The withdrawal latency was measured as the time to the point when each mouse response to the stimulus. The relative values compared to the control (% control) were calculated.
The relative values compared to the sham were calculated and shown in Table 12, which show effect of the compound of examples on tail-flick test in […].

CFA-induced pain model = assay: Antiallodynic activity on Complete Freund's Adjuvant (CFA)-induced inflammatory pain model (von Frey); type: in vivo, Sprague-Dawley rats; settings: Rattus norvegicus, ip, 0.5 h, 0.5 h, read-out: CFA model: effect (%) at the concentration administered
Protocol: Male, Sprague-Dawley rats (200-220 g, Nara Bio, Korea) were habituated for 1 week before surgery and allowed free access to food and water throughout the experimentation. Room temperature and humidity were maintained at 24±2° C. and 50±10%, respectively.
CFA-induced inflammatory pain was induced by the procedure of Nagakura et al. (2003) and Gregory P. et al. (2010) with minor modifications. CFA (sigma, USA) was injected in the left plantar with a 100 ul volume under gaseous anesthesia with isoflurane a 4:4 flow ratio of NO2 Sham controls were injected with 100 ul of saline and vehicle controls were identical to CFA infusion model, except for administration of vehicles.
as §1, with “treatment,” for “treatment”, “CFA-infused” for “SNL-operated”, “(n=12),” for “(n=4˜10)”, “(n=17)” for “(n=4˜13)”
[…] The test was performed peak time of efficacy (0.5 hr) after compound administration.
The relative values compared to the sham (% control) were calculated and shown in Table 4, which show an antiallodynic effect of the compound of Examples on CFA-induced pain model in rats.

[3] = system: Post operation-induced pain model; assay: Antiallodynic activity on post operative-induced pain model (von Frey); type: in vivo, Sprague-Dawley rats; settings: 2 mg/kg, 0.5 h, rat, intraperitoneal
Protocol: Male Sprague-Dawley rats′(Orient Bio, Korea), 300˜320 g, total of 201 rats were used (details in Table 7). Rats were habituated at least 3 clays before surgery and free access to food and water (room temperature and humidity were maintained at 24±2° C. and 50±10%, respectively). The process of performing the post-operation model's surgery was adapted from Brennan et al (1996). At first, rats with allodynia (threshold valueless than 8 g) were excluded in Pre-von Frey Test. During the post-operation surgery, rats were anesthetized under gaseous anesthesia with 2% isoflurane. Rats were laid face down on a plate fixed at 37° C. to prevent against hypothermia. The ipsilateral plantar aspect (left side) of the hind paw was prepared in a sterile manner with a 10% povidone-iodine solution. […]
For efficacy measure, the threshold value of group C was assigned 100% efficacy, and the percentage of the threshold values of group A compared to group C (for each different dose level) were calculated as the efficacies. Base on these efficacy values, ED50 was calculated using log fitting. […]
For pain threshold test, all animals were placed in a stainless steel meshed chamber and habituated for 30 min in the test box. The tactile sensitivity of the ipsilateral hind paw was measured using the up-and-down method (Dixon, 1980) with seven von Frey monofilaments (0.4, 1, 2, 4, 6, 8, and 15 g) using 3 trials. […]

CC1(C)O[C@H](c2ccccc2F)[C@@H](COS(N)(=O)=O)O1 [Example 15, ((4R,5R)-5-(2-fluorophenyl)-2,2-dimethyl-1,3-dioxolan-4-yl)methyl sulfamate]
ED50 (SNL model): 69.8 mg/kg
ED50 ([1]; 0.5 h): 113 mg/kg
tail-flick test: dose [2]: > 200 mg/kg

CC1(C)O[C@@H](COS(N)(=O)=O)[C@H](c2ccccc2F)O1 [Example 16, ((4S,5S)-5-(2-fluorophenyl)-2,2-dimethyl-1,3-dioxolan-4-yl)methyl sulfamate]
ED50 (SNL model): 24.6 mg/kg
ED50 ([1]; 1 h): 116 mg/kg
tail-flick test: dose [2]: > 200 mg/kg

CC1(C)O[C@@H](COS(N)(=O)=O)[C@H](c2ccccc2I)O1 [Example 28, ((4S,5S)-5-(2-iodophenyl)-2,2-dimethyl-1,3-dioxolan-4-yl)methyl sulfamate]
response vs control in vivo at 40 mg/kg (CFA-induced pain model; 40 mg/kg, rat, intraperitoneal): 17.8%
response vs control in vivo at 90 mg/kg (SNL model; 90 mg/kg, read-out: SNL model: effect (%) at the concentration administered): 72.6%
Hot plate test: effect (%) at the concentration administered ([1]; 100 mg/kg): ^#100 (126.4%)
tail-flick test: dose [2]: > 200 mg/kg

CC1(C)O[C@@H](COS([NH-])(=O)=O)[C@H](c2ccccc2Cl)O1.[Na+] [Example 177, sodium ((((4S,5S)-5-(2-chlorophenyl)-2,2-dimethyl-1,3-dioxolan-4-yl)methoxy)sulfonyl)amide]
response vs control in vivo at 15 mg/kg (CFA-induced pain model): 67.2%
Post Operation: effect (%) at the concentration administered [3]: ^#2 (64.4%, 0.5 h)
